Where “and” joins values, the source holds several entries; their conditions need not be identical. Identical values can stand only once. Inconclusive results and toxic doses are left out. The calls were made as follows: active = survival T/C of 150% or more; inactive = T/C below 125% in these data.
Tested on: BDF1 mice, P388 leukemia ip, median survival T/C
Assay: NCI In Vivo Anticancer Drug Screen. Data for tumor model P388 Leukemia (intraperitoneal) in B6D2F1 (BDF1) mice
Conditions: endpoint: median survival time, higher = longer survival
Outline: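 Mice carrying the transplantable tumour receive compound or vehicle. Survival is followed in each arm, and the treated measure is divided by the vehicle measure.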

[1] = dose: 50.0 mg/kg/injection, schedule: Q01DX009 (ip), vehicle: saline with Tween-80
[2] = dose: 100.0 mg/kg/injection, schedule: Q01DX009 (ip), vehicle: saline with Tween-80
[3] = dose: 200.0 mg/kg/injection, schedule: Q01DX009 (ip), vehicle: saline with Tween-80
[4] = dose: 400.0 mg/kg/injection, schedule: Q01DX009 (ip), vehicle: saline with Tween-80
[5] = dose: 25.0 mg/kg/injection, schedule: Q04DX003 (ip), vehicle: Klucel (hydroxypropylcellulose) (HPC)
[6] = dose: 50.0 mg/kg/injection, schedule: Q04DX003 (ip), vehicle: Klucel (hydroxypropylcellulose) (HPC)
[7] = dose: 100.0 mg/kg/injection, schedule: Q01DX001 (ip), vehicle: Klucel (hydroxypropylcellulose) (HPC)
[8] = dose: 200.0 mg/kg/injection, schedule: Q01DX001 (ip), vehicle: Klucel (hydroxypropylcellulose) (HPC)
[9] = dose: 400.0 mg/kg/injection, schedule: Q01DX001 (ip), vehicle: Klucel (hydroxypropylcellulose) (HPC)
[10] = dose: 100.0 mg/kg/injection, schedule: Q04DX003 (ip), vehicle: saline with Tween-80
[11] = dose: 200.0 mg/kg/injection, schedule: Q04DX003 (ip), vehicle: saline with Tween-80
[12] = dose: 400.0 mg/kg/injection, schedule: Q04DX003 (ip), vehicle: saline with Tween-80
[13] = dose: 100.0 mg/kg/injection, schedule: Q01DX009 (ip), vehicle: Klucel (hydroxypropylcellulose) (HPC)
[14] = dose: 200.0 mg/kg/injection, schedule: Q01DX009 (ip), vehicle: Klucel (hydroxypropylcellulose) (HPC)
[15] = dose: 400.0 mg/kg/injection, schedule: Q01DX009 (ip), vehicle: Klucel (hydroxypropylcellulose) (HPC)
[16] = dose: 6.25 mg/kg/injection, schedule: Q01DX009 (ip), vehicle: saline with Tween-80
[17] = dose: 25.0 mg/kg/injection, schedule: Q01DX009 (ip), vehicle: saline with Tween-80
[18] = dose: 50.0 mg/kg/injection, schedule: Q04DX003 (ip), vehicle: saline with Tween-80
[19] = dose: 100.0 mg/kg/injection, schedule: Q01DX001 (ip), vehicle: saline with Tween-80

Measured: T/C

[Cl][Co]([Cl])[Cl].[NH-]CC[N-]CC[NH-]
inactive: [1] 109 % of control | [2] 109 % of control

Cc1ccc(S(=O)(=O)Oc2ccc(-c3ccc(Br)cc3)cc2)cc1
inactive: [1] 96 % of control | [2] 96 % of control | [3] 101 % of control | [4] 92 % of control

COc1cc([N+](=O)[O-])cc(C=O)c1OC(=O)c1ccccc1
inactive: [1] 109 % of control | [2] 123 % of control

CN(C)C(=S)SC(=S)N(C)C
inactive: [5] 100 % of control | [6] 95 % of control | [7] 100 % of control and 104 % of control | dose: 100.0 mg/kg/injection, schedule: Q04DX003 (ip), vehicle: Klucel (hydroxypropylcellulose) (HPC) 109 % of control | [8] 100 % of control | [9] 104 % of control and 108 % of control

O=C1c2ccccc2C(=O)C(N2CCOCC2)C1Cl (stereo not drawn)
inactive: dose: 3.0 mg/kg/injection, schedule: Q01DX009 (ip), vehicle: saline with Tween-80 98 % of control | dose: 6.0 mg/kg/injection, schedule: Q01DX009 (ip), vehicle: saline with Tween-80 97 % of control | dose: 12.0 mg/kg/injection, schedule: Q01DX009 (ip), vehicle: saline with Tween-80 100 % of control

CCOC(=O)c1nnc(C)[nH]c1=O
inactive: [1] 103 % of control | [2] 103 % of control | [3] 98 % of control

COc1ccc(C=Nc2ccccc2N=Cc2ccc(OC)c(OC)c2)cc1OC
inactive: [2] 113 % of control | [10] 110 % of control | [3] 100 % of control | [11] 110 % of control | [4] 100 % of control | [12] 100 % of control

COC(=O)C(c1ccccc1)C(CC(=O)c1ccccc1)c1ccccc1 (stereo not drawn)
inactive: dose: 50.0 mg/kg/injection, schedule: Q01DX009 (ip), vehicle: Klucel (hydroxypropylcellulose) (HPC) 86 % of control | [13] 89 % of control and 99 % of control | [14] 92 % of control and 101 % of control | [15] 97 % of control

CC1(c2ccc(Cl)s2)C(=O)N(Cl)C(=O)N1Cl (stereo not drawn)
inactive: [16] 112 % of control | dose: 12.5 mg/kg/injection, schedule: Q01DX009 (ip), vehicle: saline with Tween-80 103 % of control and 106 % of control | [17] 106 % of control and 110 % of control | dose: 25.0 mg/kg/injection, schedule: Q04DX003 (ip), vehicle: water 108 % of control | [1] 104 % of control and 120 % of control (2×) | dose: 50.0 mg/kg/injection, schedule: Q04DX003 (ip), vehicle: water 95 % of control | [2] 95 % of control and 115 % of control | dose: 100.0 mg/kg/injection, schedule: Q04DX003 (ip), vehicle: water 102 % of control

CS(=O)(=O)OCC(OS(C)(=O)=O)C(COS(C)(=O)=O)OS(C)(=O)=O (stereo not drawn)
inactive: [1] 100 % of control | [18] 95 % of control | [2] 102 % of control | [10] 91 % of control | [3] 93 % of control | [11] 95 % of control | [4] 88 % of control | [12] 91 % of control

CC(CN(C)C)CN1c2ccccc2Sc2ccccc21 (stereo not drawn)
inactive: dose: 6.25 mg/kg/injection, schedule: Q01DX009 (ip), vehicle: saline 100 % of control | dose: 6.25 mg/kg/injection, schedule: Q04DX003 (ip), vehicle: saline 100 % of control | dose: 12.5 mg/kg/injection, schedule: Q01DX009 (ip), vehicle: saline 108 % of control and 90 % of control | dose: 12.5 mg/kg/injection, schedule: Q04DX003 (ip), vehicle: Klucel (hydroxypropylcellulose) (HPC) 100 % of control | dose: 12.5 mg/kg/injection, schedule: Q04DX003 (ip), vehicle: saline with Tween-80 110 % of control | dose: 12.5 mg/kg/injection, schedule: Q04DX003 (ip), vehicle: saline 108 % of control | [17] 109 % of control | dose: 25.0 mg/kg/injection, schedule: Q01DX009 (ip), vehicle: saline 112 % of control and 109 % of control | [5] 124 % of control | dose: 25.0 mg/kg/injection, schedule: Q04DX003 (ip), vehicle: saline 108 % of control | dose: 50.0 mg/kg/injection, schedule: Q01DX009 (ip), vehicle: saline 108 % of control | [6] 124 % of control | [18] 89 % of control | dose: 50.0 mg/kg/injection, schedule: Q04DX003 (ip), vehicle: saline 120 % of control

N#CC(C#N)=C1SCS1
inactive: dose: 3.12 mg/kg/injection, schedule: Q01DX009 (ip), vehicle: saline with Tween-80 123 % of control | [16] 123 % of control

CSCSCC(NS(=O)(=O)c1ccc(C)cc1)C(=O)O (stereo not drawn)
inactive: [10] 104 % of control | [11] 109 % of control | [12] 100 % of control

Cc1ccc(C(=O)C2CN(C)CCC2(O)c2ccc(C)cc2)cc1 (stereo not drawn)
inactive: [7] 90 % of control | [8] 110 % of control | [9] 90 % of control

COc1ccc2[nH]c(=S)[nH]c(=S)c2c1
inactive: [10] 92 % of control | [11] 91 % of control | [12] 100 % of control

Cn1c2ccccc2c(=S)c2ccccc21
inactive: [19] 89 % of control | dose: 200.0 mg/kg/injection, schedule: Q01DX001 (ip), vehicle: saline with Tween-80 90 % of control

COc1cc2ccnc(Cc3ccccc3)c2cc1OC
inactive: [2] 109 % of control | [10] 109 % of control | [3] 104 % of control | [11] 109 % of control | [12] 109 % of control

NC1CC2(CCC1=O)c1ccccc1-c1ccccc12 (stereo not drawn)
inactive: dose: 25.0 mg/kg/injection, schedule: Q01DX001 (ip), vehicle: saline with Tween-80 96 % of control | dose: 50.0 mg/kg/injection, schedule: Q01DX001 (ip), vehicle: saline with Tween-80 94 % of control | [19] 97 % of control

Cn1c(=O)c2[nH]cnc2n(C)c1=O
inactive: dose: 25.0 mg/kg/injection, schedule: Q01DX010 (ip), vehicle: saline 95 % of control | dose: 50.0 mg/kg/injection, schedule: Q01DX010 (ip), vehicle: saline 104 % of control | dose: 100.0 mg/kg/injection, schedule: Q01DX010 (ip), vehicle: saline 100 % of control | dose: 200.0 mg/kg/injection, schedule: Q01DX010 (ip), vehicle: saline 104 % of control

O=C(O)Cc1ccc(C2CCCCC2)cc1
inactive: [13] 91 % of control and 95 % of control | [14] 90 % of control | [15] 90 % of control and 100 % of control

Source: PubChem BioAssay AID328 (DTP/NCI, 2004)
